Source: patent US12358912B2 (ASCENTAGE PHARMA (SUZHOU) CO., LTD., priority 2020, dated 2025)

Tests used:
[1] = Stability test (2): salt crystalline forms at high temperature, high humidity and light, detection by HPLC and XRPD; format: physicochemical; details: for total impurities (%): HPLC
[2] = Evaluation of hygroscopicity by Dynamic Moisture Sorption Analyzer (DVS), with XRPD before and after DVS; format: physicochemical; details: for weight increase by hygroscopy (80% RH): DVS; for XRPD change: XRPD before and after DVS
[3] = light (RT, white light 6980 lux, UV 282 μW/cm2), 5 days
[4] = light (RT, white light 6980 lux, UV 282 μW/cm2), 10 days
[5] = 60° C. (open), 5 days, listed as XL
[6] = 60° C. (open), 10 days, listed as XL
[7] = 60° C. (open), 30 days, listed as XL
[8] = light (RT, white light 6980 lux, UV 282 μW/cm2), 5 days, listed as XL
[9] = light (RT, white light 6980 lux, UV 282 μW/cm2), 10 days, listed as XL
[10] = 60° C. (open), 5 days, listed as XXXVI
[11] = 60° C. (open), 10 days, listed as XXXVI
[12] = 60° C. (open), 30 days, listed as XXXVI
[13] = light (RT, white light 6980 lux, UV 282 μW/cm2), 5 days, listed as XXXVI
[14] = light (RT, white light 6980 lux, UV 282 μW/cm2), 10 days, listed as XXXVI

| Structure (SMILES) | XPRD ([1]; 60° C. (open), 5 days) | XPRD ([1]; 60° C. (open), 10 days) | XPRD ([1]; 60° C. (open), 30 days) | total impurities (%) ([1]; 60° C. (open), 5 days) | total impurities (%) ([1]; 60° C. (open), 10 days) | total impurities (%) ([1]; 60° C. (open), 30 days) | total impurities (%) ([1]; RT/75% RH (open), 5 days) | total impurities (%) ([1]; RT/75% RH (open), 10 days) | total impurities (%) ([1]; RT/75% RH (open), 30 days) | total impurities (%) [1, 3] [%] | total impurities (%) [1, 4] [%] | total impurities (%) ([1]; the initial sample, 0 day) | XPRD ([1]; RT/75% RH (open), 5 days) | XPRD ([1]; RT/75% RH (open), 10 days) | XPRD ([1]; RT/75% RH (open), 30 days) | XPRD [1, 3] | XPRD [1, 4] | XPRD ([1]; the initial sample, 0 day) | weight increase by hygroscopy (80% RH) [2] [%] | XRPD change [2] | also measured |
| --- | --- | --- | --- | --- | --- | --- | --- | --- | --- | --- | --- | --- | --- | --- | --- | --- | --- | --- | --- | --- | --- |
| O=C(NS(=O)(=O)c1ccc(NC[C@H]2COCCO2)c([N+](=O)[O-])c1)c1ccc(N2CCN(CC3=C(c4ccc(Cl)cc4)CC4(CCC4)CC3)CC2)cc1Oc1cnc2[nH]ccc2c1.O=S(=O)(O)c1ccccc1 [XXVII] | No change | No change | No change | 1.26 | 1.37 | 1.33 | 1.22 | 1.25 | 1.27 | 1.20 | 1.28 | 1.19 | No change | No change | No change | No change | No change | XXVII | 3.32 | no change | – |
| O=C(NS(=O)(=O)c1ccc(NCC2COCCO2)c([N+](=O)[O-])c1)c1ccc(N2CCN(CC3=C(c4ccc(Cl)cc4)CC4(CCC4)CC3)CC2)cc1Oc1cnc2[nH]ccc2c1 (stereo not drawn) [maleate crystalline Form XL] | – | – | – | – | – | – | – | – | – | – | – | – | No change | No change | – | – | – | – | – | no change | XPRD [1, 5]: No change; XPRD [1, 6]: No change; XPRD [1, 7]: No change; total impurities (%) [1, 5]: 1.15%; total impurities (%) [1, 6]: 1.18%; total impurities (%) [1, 7]: 1.28%; total impurities (%) ([1]; RT/75% RH (open), 5 days, listed as XL): 0.93%; total impurities (%) ([1]; RT/75% RH (open), 10 days, listed as XL): 1.06%; total impurities (%) ([1]; RT/75% RH (open), 30 days, listed as XL): 0.90%; total impurities (%) [1, 8]: 1.08%; total impurities (%) [1, 9]: 1.18%; total impurities (%) ([1]; the initial sample, 0 day, listed as XL): 0.91%; XPRD [1, 8]: No change; XPRD [1, 9]: No change; weight increase by hygroscopy (80% RH) ([2]; listed as XL): 1.41% |
| O=C(NS(=O)(=O)c1ccc(NCC2COCCO2)c([N+](=O)[O-])c1)c1ccc(N2CCN(CC3=C(c4ccc(Cl)cc4)CC4(CCC4)CC3)CC2)cc1Oc1cnc2[nH]ccc2c1 (stereo not drawn) [citrate crystalline Form XXXVI] | – | – | – | – | – | – | – | – | – | – | – | – | – | – | – | – | – | XXXVI | – | no change | XPRD [1, 10]: changed; XPRD [1, 11]: changed; XPRD [1, 12]: changed; total impurities (%) [1, 10]: 0.97%; total impurities (%) [1, 11]: 1.01%; total impurities (%) [1, 12]: 0.98%; total impurities (%) ([1]; RT/75% RH (open), 5 days, listed as XXXVI): 0.95%; total impurities (%) ([1]; RT/75% RH (open), 10 days, listed as XXXVI): 0.95%; total impurities (%) ([1]; RT/75% RH (open), 30 days, listed as XXXVI): 1.00%; total impurities (%) [1, 13]: 1.06%; total impurities (%) [1, 14]: 1.36%; total impurities (%) ([1]; the initial sample, 0 day, listed as XXXVI): 1.02%; XPRD [1, 13]: no change; XPRD [1, 14]: no change; weight increase by hygroscopy (80% RH) ([2]; listed as XXXVI): 2.00% |
| CS(=O)(=O)O.O=C(NS(=O)(=O)c1ccc(NC[C@H]2COCCO2)c([N+](=O)[O-])c1)c1ccc(N2CCN(CC3=C(c4ccc(Cl)cc4)CC4(CCC4)CC3)CC2)cc1Oc1cnc2[nH]ccc2c1 [XXXIII] | – | – | – | 0.90 | 0.91 | 1.11 | 0.67 | 0.71 | 0.70 | 0.84 | 1.09 | 0.67 | – | – | – | No change | No change | XXXIII | 7.82 | changed | – |
| O=C(NS(=O)(=O)c1ccc(NC[C@H]2COCCO2)c([N+](=O)[O-])c1)c1ccc(N2CCN(CC3=C(c4ccc(Cl)cc4)CC4(CCC4)CC3)CC2)cc1Oc1cnc2[nH]ccc2c1.O=C(O)CC(O)(CC(=O)O)C(=O)O [XXXIX] | No change | No change | No change | 0.90 | 0.89 | 0.86 | 0.80 | 0.82 | 0.81 | 0.88 | 1.02 | 0.76 | No change | No change | No change | No change | No change | XXXIX | 0.37 | no change | – |
| O=C(NS(=O)(=O)c1ccc(NC[C@H]2COCCO2)c([N+](=O)[O-])c1)c1ccc(N2CCN(CC3=C(c4ccc(Cl)cc4)CC4(CCC4)CC3)CC2)cc1Oc1cnc2[nH]ccc2c1.O=S(=O)(O)O [XXX] | No change | No change | No change | 0.89 | 0.92 | 0.83 | 0.82 | 0.86 | 0.74 | 0.82 | 1.02 | 0.80 | No change | No change | No change | No change | No change | XXX | 0.90 | no change | – |
| Cc1ccc(S(=O)(=O)O)cc1.O=C(NS(=O)(=O)c1ccc(NC[C@H]2COCCO2)c([N+](=O)[O-])c1)c1ccc(N2CCN(CC3=C(c4ccc(Cl)cc4)CC4(CCC4)CC3)CC2)cc1Oc1cnc2[nH]ccc2c1 [XXIX] | No change | No change | No change | 0.64 | 0.65 | 0.66 | 0.65 | 0.65 | 0.60 | 0.64 | 0.59 | 0.65 | No change | No change | No change | No change | No change | XXIX | 0.948 | no change | – |
